What was measured:
[1] = molar heat capacity at constant pressure; xn = mol fraction of the nth substance listed; conditions: 101.3 kPa, Liquid, Small sample (50 mg) DSC
[2] = xn = mol fraction of the nth substance listed; conditions: 101.3 kPa, Liquid, Vibrating tube method
[3] = excess molar enthalpy (molar enthalpy of mixing); xn = mol fraction of the nth substance listed; conditions: 303.15 K, 101.3 kPa, Liquid, Calvet calorimetry

C[N+](=O)[O-] [nitromethane] + CCCCn1cc[n+](C)c1.O=S(=O)([O-])C(F)(F)F
Conditions | mass density, [2] [kg/m3] | molar heat capacity at constant pressure, [1] [J/K/mol]
293.15 K, x2 = 0.0495 | 1173.6 | 121.1
293.15 K, x2 = 0.0972 | 1196.4 | 136
293.15 K, x2 = 0.2021 | 1229.9 | 168.8
293.15 K, x2 = 0.2955 | 1249.1 | 198.5
293.15 K, x2 = 0.4015 | 1264.3 | 231.5
293.15 K, x2 = 0.495 | 1274.2 | 261.4
293.15 K, x2 = 0.5993 | 1282.6 | 294.6
293.15 K, x2 = 0.6939 | 1288.6 | 324.4
293.15 K, x2 = 0.7858 | 1293.3 | 353.8
293.15 K, x2 = 0.8697 | 1296.9 | 380.5
293.15 K, x2 = 0.9286 | 1299.1 | 398.8
298.15 K, x2 = 0.0495 | 1167.4 | 121.4
298.15 K, x2 = 0.0972 | 1190.6 | 136.4
298.15 K, x2 = 0.2021 | 1224.7 | 169.4
298.15 K, x2 = 0.2955 | 1244.2 | 199.4
298.15 K, x2 = 0.4015 | 1259.7 | 232.6
298.15 K, x2 = 0.495 | 1269.7 | 262.6
298.15 K, x2 = 0.5993 | 1278.2 | 296.1
298.15 K, x2 = 0.6939 | 1284.3 | 326.1
298.15 K, x2 = 0.7858 | 1289.1 | 355.6
298.15 K, x2 = 0.8697 | 1292.8 | 382.7
298.15 K, x2 = 0.9286 | 1295.1 | 400.9
303.15 K, x2 = 0.0495 | 1161.2 | 121.8
303.15 K, x2 = 0.0972 | 1184.8 | 137
303.15 K, x2 = 0.2021 | 1219.4 | 170.1
303.15 K, x2 = 0.2955 | 1239.3 | 200.3
303.15 K, x2 = 0.4015 | 1255 | 233.9
303.15 K, x2 = 0.495 | 1265.2 | 263.9
303.15 K, x2 = 0.5993 | 1273.9 | 297.8
303.15 K, x2 = 0.6939 | 1280.1 | 327.9
303.15 K, x2 = 0.7858 | 1285 | 357.5
303.15 K, x2 = 0.8697 | 1288.8 | 385
303.15 K, x2 = 0.9286 | 1291.1 | 403.3
308.15 K, x2 = 0.0495 | 1154.9 | 122.3
308.15 K, x2 = 0.0972 | 1178.9 | 137.5
308.15 K, x2 = 0.2021 | 1214.2 | 170.9
308.15 K, x2 = 0.2955 | 1234.3 | 201.4
308.15 K, x2 = 0.4015 | 1250.3 | 235.2
308.15 K, x2 = 0.495 | 1260.7 | 265.3
308.15 K, x2 = 0.5993 | 1269.6 | 299.5
308.15 K, x2 = 0.6939 | 1275.9 | 329.8
308.15 K, x2 = 0.7858 | 1280.9 | 359.6
308.15 K, x2 = 0.8697 | 1284.7 | 387.4
308.15 K, x2 = 0.9286 | 1287.1 | 405.7
313.15 K, x2 = 0.0495 | 1148.8 | 122.8
313.15 K, x2 = 0.0972 | 1173.2 | 138.2
313.15 K, x2 = 0.2021 | 1209 | 171.7
313.15 K, x2 = 0.2955 | 1229.5 | 202.5
313.15 K, x2 = 0.4015 | 1245.7 | 236.6
313.15 K, x2 = 0.495 | 1256.3 | 266.8
313.15 K, x2 = 0.5993 | 1265.3 | 301.3
313.15 K, x2 = 0.6939 | 1271.7 | 331.8
313.15 K, x2 = 0.7858 | 1276.8 | 361.8
313.15 K, x2 = 0.8697 | 1280.7 | 389.9
313.15 K, x2 = 0.9286 | 1283.1 | 408.3
318.15 K, x2 = 0.0495 | 1142.5 | 123.3
318.15 K, x2 = 0.0972 | 1167.4 | 138.7
318.15 K, x2 = 0.2021 | 1203.7 | 172.5
318.15 K, x2 = 0.2955 | 1224.6 | 203.6
318.15 K, x2 = 0.4015 | 1241.1 | 238
318.15 K, x2 = 0.495 | 1251.8 | 268.3
318.15 K, x2 = 0.5993 | 1261 | 303.2
318.15 K, x2 = 0.6939 | 1267.5 | 334
318.15 K, x2 = 0.7858 | 1272.7 | 364.1
318.15 K, x2 = 0.8697 | 1276.7 | 392.6
318.15 K, x2 = 0.9286 | 1279.1 | 411.1

[3]
Conditions | excess molar enthalpy [kcal/mol]
x2 = 0.1022 | 0.00932
x2 = 0.1994 | 0.0136
x2 = 0.3029 | 0.0148
x2 = 0.4044 | 0.0141
x2 = 0.5067 | 0.0134
x2 = 0.5931 | 0.0108
x2 = 0.703 | 0.00741
x2 = 0.7814 | 0.0012
x2 = 0.8933 | -0.00215

C[N+](=O)[O-] [nitromethane] + CCn1cc[n+](C)c1.O=S(=O)([O-])C(F)(F)F
Conditions | mass density, [2] [kg/m3] | molar heat capacity at constant pressure, [1] [J/K/mol]
293.15 K, x2 = 0.0525 | 1186.8 | 119.2
293.15 K, x2 = 0.0981 | 1217.2 | 130.6
293.15 K, x2 = 0.2013 | 1266.6 | 157
293.15 K, x2 = 0.3063 | 1300.5 | 183.7
293.15 K, x2 = 0.4027 | 1323.1 | 208.2
293.15 K, x2 = 0.4995 | 1340.5 | 233.2
293.15 K, x2 = 0.5934 | 1353.9 | 257.3
293.15 K, x2 = 0.6847 | 1364.4 | 280.5
293.15 K, x2 = 0.7698 | 1372.6 | 301.6
293.15 K, x2 = 0.8671 | 1380.5 | 326.9
298.15 K, x2 = 0.0525 | 1180.5 | 119.5
298.15 K, x2 = 0.0981 | 1211.2 | 130.9
298.15 K, x2 = 0.2013 | 1261.1 | 157.6
298.15 K, x2 = 0.3063 | 1295.4 | 184.4
298.15 K, x2 = 0.4027 | 1318.2 | 209.1
298.15 K, x2 = 0.4995 | 1335.7 | 234.3
298.15 K, x2 = 0.5934 | 1349.2 | 258.5
298.15 K, x2 = 0.6847 | 1359.9 | 281.9
298.15 K, x2 = 0.7698 | 1368.2 | 303.3
298.15 K, x2 = 0.8671 | 1376.2 | 328.8
303.15 K, x2 = 0.0525 | 1174.3 | 120
303.15 K, x2 = 0.0981 | 1205.3 | 131.4
303.15 K, x2 = 0.2013 | 1255.7 | 158.3
303.15 K, x2 = 0.3063 | 1290.3 | 185.2
303.15 K, x2 = 0.4027 | 1313.3 | 210.1
303.15 K, x2 = 0.4995 | 1331 | 235.5
303.15 K, x2 = 0.5934 | 1344.7 | 259.9
303.15 K, x2 = 0.6847 | 1355.4 | 283.3
303.15 K, x2 = 0.7698 | 1363.8 | 305
303.15 K, x2 = 0.8671 | 1371.9 | 330.7
308.15 K, x2 = 0.0525 | 1168 | 120.4
308.15 K, x2 = 0.0981 | 1199.3 | 131.8
308.15 K, x2 = 0.2013 | 1250.2 | 159.1
308.15 K, x2 = 0.3063 | 1285.2 | 186.1
308.15 K, x2 = 0.4027 | 1308.4 | 211.1
308.15 K, x2 = 0.4995 | 1326.3 | 236.7
308.15 K, x2 = 0.5934 | 1340.1 | 261.3
308.15 K, x2 = 0.6847 | 1351 | 284.8
308.15 K, x2 = 0.7698 | 1359.4 | 306.7
308.15 K, x2 = 0.8671 | 1367.6 | 332.7
313.15 K, x2 = 0.0525 | 1161.7 | 121
313.15 K, x2 = 0.0981 | 1193.4 | 132.4
313.15 K, x2 = 0.2013 | 1244.8 | 160
313.15 K, x2 = 0.3063 | 1280.1 | 187
313.15 K, x2 = 0.4027 | 1303.6 | 212.1
313.15 K, x2 = 0.4995 | 1321.6 | 238
313.15 K, x2 = 0.5934 | 1335.5 | 262.7
313.15 K, x2 = 0.6847 | 1346.5 | 286.3
313.15 K, x2 = 0.7698 | 1355.1 | 308.5
313.15 K, x2 = 0.8671 | 1363.4 | 334.7
318.15 K, x2 = 0.0525 | 1155.4 | 121.4
318.15 K, x2 = 0.0981 | 1187.4 | 132.8
318.15 K, x2 = 0.2013 | 1239.3 | 160.8
318.15 K, x2 = 0.3063 | 1275 | 188
318.15 K, x2 = 0.4027 | 1298.7 | 213
318.15 K, x2 = 0.4995 | 1316.9 | 239.2
318.15 K, x2 = 0.5934 | 1331 | 264.2
318.15 K, x2 = 0.6847 | 1342.1 | 287.8
318.15 K, x2 = 0.7698 | 1350.7 | 310.3
318.15 K, x2 = 0.8671 | 1359.1 | 336.7

[3]
Conditions | excess molar enthalpy [kcal/mol]
x2 = 0.1234 | -0.0301
x2 = 0.2533 | -0.0457
x2 = 0.3774 | -0.0468
x2 = 0.5026 | -0.048
x2 = 0.6253 | -0.0399
x2 = 0.7438 | -0.0299
x2 = 0.8668 | -0.0139
